Reference: US20060078502A1, “Charge neutral complexes of paramagnetic metals as intracellular magnetic resonance imaging contrast agents” (priority 2004, published 2006)

How the values were obtained:
human neutrophils = experiment: Kinetics of complex loading into cells; format: cell-based; conditions: 37° C., neutrophils in donor plasma, 3.7 mg gadolinium
Method: Kinetics of Complex Loading into Cells. For this study, human neutrophils were obtained from a single donor and suspended in 50 microliters of the same donor's plasma in a series of test tubes. The neutrophils were incubated at 37° C. with gadolinium pyrithione complex in a shaker bath. The amount of gadolinium pyrithione used for each test tube provided 3.7 mg of gadolinium, which was added to the test tube in 250 microliters of acetate buffer. After various incubation times, the neutrophil cells were centrifuged, washed with buffer and the amount of neutrophil-bound gadolinium was calculated.

[1] = Storage stability of the complex (solution formulation, lyophilized); format: physicochemical; conditions: after one year of storage in the refrigerator; acetate-dextrose buffer, pH 6.4
Method: The contrast agent of the invention can be packaged into kit form. Conveniently, the complexes are formed as described herein, sterilized, filled into sterile bottles and then freeze-dried (lyophilized). The lyophilized complex is stable when stored for at least one year at 4° C. The lyophilized complex is reconstituted in acetate buffer (about 0.2 M NaOAc, pH 6.0 to 6.4) to the desired concentration for injection for use.
Fifty microliters of the gadolinium chloride solution is mixed with 250-400 microliters of the pyrithione solution. A white precipitate of gadolinium pyrithione complex is formed, which is vortexed for good mixing. The gadolinium pyrithione complex is dissolved in 1250 microliters of 0.2 molar acetate-dextrose buffer. The final pH is adjusted to 6.4 with a pH electrode (Beckman-Coulter). The osmolarity of the solution is checked by the freezing point method to 275 mOsmole. The gadolinium pyrithione complex solution is sterilized by membrane filtration (0.22 micrometer filter) and stored in a refrigerator.
(§1) This formulation is found to be stable after one year of storage in the refrigerator. It is soluble in 0.2 molar acetate buffer, in a mixture of acetate buffer and saline or human plasma facilitating the storage of Gd-complex, its transport and control of reconstitution by adjustment of injectate volume, and its use in cell-tagging and administration of tagged cells.

[2] = Solubility of the complex; format: physicochemical; conditions: 0.2 molar acetate buffer; mixture of acetate buffer and saline or human plasma
Excerpt: A paramagnetic metal atom has one or more unpaired […], providing a half-integral “spin” quantum number. For metal complex MRI contrast agents, the MRI relaxation efficiency per molecule depends on the nature of the metal in the chelate complex and the size of the metal chelate complex. These contrast agents serve as relaxation sinks for the protons of adjacent water molecules. The metal complex lattice receives the energy from the protons excited by radiofrequency (RF) pulses. […] This facilitates energy transfer, and provides increased imaging efficiency. The complexes of the present invention are soluble in lipids and provide relaxivities in the range 50-150 millimole^−1 second^−1. The gadolinium complexes of this invention, for instance, provide T1 relaxivity values of 80 per millimole per second and T2 values of 93 millimole^−1 second^−1. The complexes of the present invention are thus particularly useful as intra-cellular MRI contrast agents.
as §1

[3] = system: plasma lipoproteins (VLDL, LDL and HDL); experiment: Kinetics of gadolinium complex binding to plasma lipoproteins; format: in vitro ADME; conditions: Gd-153 labeled, 60 minutes at room temperature, density gradient separation
Method: For this study, the galadolinium pyrithione complex labeled with Gd-153 was incubated directly with isolated lipoprotein particles in acetate-citrate buffer or was incubated with intact plasma for 60 minutes at room temperature. Very low, low and high-density lipoproteins (VLDL, LDL and HDL) were separated by cesium chloride density gradients (1.06 and 1.25 g/ml) in an ultracentrifuge (Beckman L8-55) in a swinging bucket rotor using standard protocols. The mixture in 4.5 ml in polyallomer tubes was spun at 210,000 g for 20 hours. The plasma proteins in the […], and layers representing each of VLDL, LDL and HDL were removed from the top of the tube by suction. The amount of gadolinium pyrithione bound to VLDL, LDL, HDL and plasma proteins was measured by counting the radioactivity in each fraction with the gamma well counter. The majority of gadolinium complexes were bound to lipoproteins. Accordingly, the gadolinium-tagged lipoprotein particles are useful to localize the sites of vulnerable plaques in patients, thus identifying the rupture-prone vulnerable plaques in the coronary or carotid arteries with MRI.

C3H mouse = experiment: MRI processing and imaging of a mouse after intravenous administration; format: in vivo
Excerpt: A Bruker 7.0 Tesla MRI System (BioSpin MRI Gmbh, Avance) operated at 300 MHz was used in this study. The system parameters are optimized for high resolution imaging with either T1-weighted (Gd-complexes) or T2-weighted agents (Fe-complexes). The mouse was placed on a stereotactic holder with a prone position. The holder stayed in the center of the 32 mm bore of the transmitter-receiver RF coil. The tail-vein was cannulated with a 27-29 G needle for delivery of contrast agents via slow infusion. 0.2 ml of 6 μM of the gadolium pyrithione complex was administered per dose. Two doses were administered 27 minutes apart. After acquisition of scout images, T1-weighted data were acquired with a spoiled gradient echo sequence, T1=100 to 700 ms, for example, 200 ms, TR (repetition time)=10 to 500 ms, for example, 13 ms, TE (echo time)=5 to 10 ms, for example, 6 ms, and flip angle=60-90 degree. Data were acquired before and after injection of contrast media to evaluate the reduction of tissue T1-values from 500-700 ms to 100-200 ms with the Gd-complexes or Gd-tagged cells.
FIG. 1 presents a T1-weighted MR image (coronal slice, 1 mm thickness) of the C3H mouse at 3 minutes after the second intravenous administration of Gd-(tris)pyrithione complex, providing an image at 3 and 30 minutes post administration. […] The conclusion that the complex is stable is reached because, unstable Gd-complexes hydrolyze and Gd-colloids form and localize in the macrophage pool of reticuloendothelial system of liver, spleen and bone marrow.

[Gd+3].[O-][n+]1ccccc1[S-].[O-][n+]1ccccc1[S-].[O-][n+]1ccccc1[S-] [gadolinium pyrithione complex, gadolinium (tris)pyrithione]
Gadolinium (% in cells) (human neutrophils; incubation time 05 minutes): 99.21%
Gadolinium (% in cells) (human neutrophils; incubation time 10 minutes): 99.75%
Gadolinium (% in cells) (human neutrophils; incubation time 30 minutes): 99.36%
Gadolinium (% in cells) (human neutrophils; incubation time 45 minutes): 99.11%
stability of formulation on storage [1]: stable
solubility [2]: soluble
fraction of complex bound to lipoproteins [3]: majority
imaging of liver, spleen and bone marrow (reticuloendothelial system) (C3H mouse; 3 and 30 minutes post administration): None of these tissues were imaged
in vivo stability of the agent (C3H mouse; C3H mouse, intravenous, two doses 27 minutes apart, T1-weighted MRI): stable
localization in late phase (C3H mouse; thirty minutes after the first administration): bladder
localization in early phase post-IV injection (C3H mouse; three minutes after the second administration): heart
